Values quoted from earlier work as cited in patent publication US5198463A, “Oxytocin antagonists” (Merck & Co., Inc., priority 1992, dated 1993).

Tested on: Chinese cabbage seedlings
Conditions: reported by T. Sassa et al.

## COc1c(C(O)CC(C)C)ccc2c1C(=O)OCc1cc(C)cc(O)c1O2 (stereo not shown) [Compound IA, penicillide]
  growth of Chinese cabbage seedlings: markedly inhibits the growth
